In patent US11547697B2, “Heterocyclic compounds and uses thereof” (MILLENNIUM PHARMACEUTICALS, INC., priority 2009, dated 2023):
pIC50: −log10 of the molar value.

Columns and labels:
p110β/p85α = p110β/p85α (Homo sapiens (Human), UniProt P42338); assay: PI 3-Kinase (human) HTRF assay, p110β/p85α; format: biochemical; details: in vitro; read-out: PI3K β IC50
p110δ/p85α = p110δ/p85α (Homo sapiens (Human), UniProt O00329); assay: PI 3-Kinase (human) HTRF assay, p110δ/p85α; format: biochemical; details: in vitro; read-out: PI3K δ IC50
[1] = system: tumor cells with a PI3Kα mutation (e.g., MDA-MB-361 and T47D); assay: Proliferation of tumor cells with PI3Kα mutation; format: cell-based; details: Homo sapiens; T47D cells; read-out: T47D proliferation IC50
p110α/p85α = p110α/p85α (Homo sapiens (Human), UniProt P42336); assay: PI 3-Kinase (human) HTRF assay, p110α/p85α; format: biochemical; details: in vitro; read-out: PI3K α IC50
Experimental: (§1) An exemplary system is PI 3-Kinase (human) HTRF™ Assay from Upstate. […] Briefly, the assay is a time resolved FRET assay that indirectly measures PIP3 product formed by the activity of a PI3-K. The kinase reaction is performed in a microtitre plate (e.g., a 384 well microtitre plate). The total reaction volume is approximately 20 ul per well. In the first step, each well receives 2 ul of test compound in 20% dimethylsulphoxide resulting in a 2% DMSO final concentration. Next, approximately 14.5 ul of a kinase/PIP2 mixture (diluted in 1× reaction buffer) is added per well for a final concentration of 0.25-0.3 ug/ml kinase and 10 μM PIP2. The plate is sealed and incubated for 15 minutes at room temperature. To start the reaction, 3.5 ul of ATP (diluted in 1× reaction buffer) is added per well for a final concentration of 10 μM ATP. The plate is sealed and incubated for 1 hour at room temperature. The reaction is stopped by adding 5 ul of Stop Solution per well and then 5 ul of Detection Mix is added per well. The plate is sealed, incubated for 1 hour at room temperature, and then read on an appropriate plate reader. Data is analyzed and IC50s are generated using GraphPad Prism 5. […] For PI3K α, β, δ, and γ, the nM concentration of inhibitor to reach IC50 is provided.

p110γ = p110γ (Homo sapiens (Human), UniProt P48736); assay: PI 3-Kinase (human) HTRF assay, p110γ; format: biochemical; details: in vitro; read-out: PI3K γ IC50
Sequence of p110γ (P48736 whole entry): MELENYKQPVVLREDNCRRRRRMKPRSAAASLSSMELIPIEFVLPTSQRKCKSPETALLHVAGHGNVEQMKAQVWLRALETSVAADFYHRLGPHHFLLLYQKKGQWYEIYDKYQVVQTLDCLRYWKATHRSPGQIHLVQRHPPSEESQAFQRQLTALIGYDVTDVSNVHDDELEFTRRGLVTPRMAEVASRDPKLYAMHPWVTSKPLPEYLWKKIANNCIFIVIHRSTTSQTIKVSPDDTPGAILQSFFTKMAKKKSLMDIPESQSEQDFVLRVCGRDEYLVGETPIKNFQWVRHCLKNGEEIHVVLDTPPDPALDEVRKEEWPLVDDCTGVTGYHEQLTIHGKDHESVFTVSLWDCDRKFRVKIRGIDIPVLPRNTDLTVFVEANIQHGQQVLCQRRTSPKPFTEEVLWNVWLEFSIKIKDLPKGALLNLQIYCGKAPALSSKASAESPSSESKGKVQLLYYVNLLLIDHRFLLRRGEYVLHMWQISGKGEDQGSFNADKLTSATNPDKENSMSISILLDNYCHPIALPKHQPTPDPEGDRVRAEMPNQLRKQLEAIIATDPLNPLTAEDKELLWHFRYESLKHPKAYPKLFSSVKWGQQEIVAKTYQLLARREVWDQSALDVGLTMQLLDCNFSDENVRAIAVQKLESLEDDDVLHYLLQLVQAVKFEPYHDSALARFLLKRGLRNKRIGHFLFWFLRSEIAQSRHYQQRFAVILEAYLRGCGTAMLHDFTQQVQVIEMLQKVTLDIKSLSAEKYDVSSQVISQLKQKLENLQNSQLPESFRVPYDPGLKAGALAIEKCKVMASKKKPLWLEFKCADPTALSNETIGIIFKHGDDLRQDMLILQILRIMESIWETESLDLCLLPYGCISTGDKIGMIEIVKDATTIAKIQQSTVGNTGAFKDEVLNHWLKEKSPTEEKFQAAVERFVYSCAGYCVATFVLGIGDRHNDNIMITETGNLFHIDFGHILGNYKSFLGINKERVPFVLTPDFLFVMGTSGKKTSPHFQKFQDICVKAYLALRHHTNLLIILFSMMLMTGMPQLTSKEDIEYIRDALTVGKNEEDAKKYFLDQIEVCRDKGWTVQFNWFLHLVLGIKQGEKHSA
Experimental: as §1

Sequence of p110α/p85α (P42336 whole entry): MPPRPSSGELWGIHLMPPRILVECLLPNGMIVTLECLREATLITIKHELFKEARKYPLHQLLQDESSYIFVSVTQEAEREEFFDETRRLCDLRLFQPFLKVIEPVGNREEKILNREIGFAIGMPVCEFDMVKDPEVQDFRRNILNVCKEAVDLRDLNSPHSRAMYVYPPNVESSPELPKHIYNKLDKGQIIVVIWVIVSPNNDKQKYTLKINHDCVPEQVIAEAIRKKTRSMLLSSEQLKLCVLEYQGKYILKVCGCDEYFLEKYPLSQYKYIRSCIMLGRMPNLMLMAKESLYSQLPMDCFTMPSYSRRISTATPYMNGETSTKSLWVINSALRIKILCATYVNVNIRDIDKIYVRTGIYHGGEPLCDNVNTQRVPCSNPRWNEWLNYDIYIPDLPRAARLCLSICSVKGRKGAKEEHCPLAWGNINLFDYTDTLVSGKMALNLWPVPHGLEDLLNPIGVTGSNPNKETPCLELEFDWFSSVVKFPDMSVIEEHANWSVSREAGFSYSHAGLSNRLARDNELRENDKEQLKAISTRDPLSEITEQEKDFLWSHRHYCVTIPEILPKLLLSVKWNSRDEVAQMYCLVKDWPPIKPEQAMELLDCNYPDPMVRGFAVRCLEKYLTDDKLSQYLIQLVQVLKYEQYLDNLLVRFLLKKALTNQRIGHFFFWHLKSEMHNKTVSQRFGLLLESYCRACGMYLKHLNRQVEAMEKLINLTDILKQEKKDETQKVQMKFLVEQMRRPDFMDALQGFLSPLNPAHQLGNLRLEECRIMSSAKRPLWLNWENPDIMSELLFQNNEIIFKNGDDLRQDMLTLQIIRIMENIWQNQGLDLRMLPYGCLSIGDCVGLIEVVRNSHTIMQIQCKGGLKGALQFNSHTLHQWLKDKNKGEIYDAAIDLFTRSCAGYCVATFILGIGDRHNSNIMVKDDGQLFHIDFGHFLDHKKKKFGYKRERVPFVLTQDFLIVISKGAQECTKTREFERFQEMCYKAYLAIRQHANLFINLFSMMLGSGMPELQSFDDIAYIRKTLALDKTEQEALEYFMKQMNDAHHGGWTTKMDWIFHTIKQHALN
Sequence of p110α/p85α (P27986 whole entry partner): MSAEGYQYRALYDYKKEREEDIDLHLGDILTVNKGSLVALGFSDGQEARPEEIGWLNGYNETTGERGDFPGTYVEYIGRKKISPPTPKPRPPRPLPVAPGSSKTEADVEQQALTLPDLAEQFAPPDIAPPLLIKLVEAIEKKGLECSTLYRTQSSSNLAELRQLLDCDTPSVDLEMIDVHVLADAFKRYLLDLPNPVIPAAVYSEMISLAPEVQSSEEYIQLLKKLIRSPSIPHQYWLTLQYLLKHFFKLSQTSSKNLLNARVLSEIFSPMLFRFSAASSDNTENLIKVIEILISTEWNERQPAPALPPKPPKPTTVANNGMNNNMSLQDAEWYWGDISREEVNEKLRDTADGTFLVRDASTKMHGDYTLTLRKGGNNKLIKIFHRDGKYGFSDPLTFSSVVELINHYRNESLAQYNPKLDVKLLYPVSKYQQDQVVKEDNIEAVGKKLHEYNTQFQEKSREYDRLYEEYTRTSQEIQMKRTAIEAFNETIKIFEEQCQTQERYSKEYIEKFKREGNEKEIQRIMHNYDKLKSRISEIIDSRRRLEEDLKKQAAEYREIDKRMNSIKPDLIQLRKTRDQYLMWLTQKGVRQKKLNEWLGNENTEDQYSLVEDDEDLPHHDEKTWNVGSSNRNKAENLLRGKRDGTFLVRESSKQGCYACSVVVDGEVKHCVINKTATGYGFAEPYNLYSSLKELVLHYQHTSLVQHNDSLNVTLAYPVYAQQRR
Sequence of p110δ/p85α (O00329 whole entry): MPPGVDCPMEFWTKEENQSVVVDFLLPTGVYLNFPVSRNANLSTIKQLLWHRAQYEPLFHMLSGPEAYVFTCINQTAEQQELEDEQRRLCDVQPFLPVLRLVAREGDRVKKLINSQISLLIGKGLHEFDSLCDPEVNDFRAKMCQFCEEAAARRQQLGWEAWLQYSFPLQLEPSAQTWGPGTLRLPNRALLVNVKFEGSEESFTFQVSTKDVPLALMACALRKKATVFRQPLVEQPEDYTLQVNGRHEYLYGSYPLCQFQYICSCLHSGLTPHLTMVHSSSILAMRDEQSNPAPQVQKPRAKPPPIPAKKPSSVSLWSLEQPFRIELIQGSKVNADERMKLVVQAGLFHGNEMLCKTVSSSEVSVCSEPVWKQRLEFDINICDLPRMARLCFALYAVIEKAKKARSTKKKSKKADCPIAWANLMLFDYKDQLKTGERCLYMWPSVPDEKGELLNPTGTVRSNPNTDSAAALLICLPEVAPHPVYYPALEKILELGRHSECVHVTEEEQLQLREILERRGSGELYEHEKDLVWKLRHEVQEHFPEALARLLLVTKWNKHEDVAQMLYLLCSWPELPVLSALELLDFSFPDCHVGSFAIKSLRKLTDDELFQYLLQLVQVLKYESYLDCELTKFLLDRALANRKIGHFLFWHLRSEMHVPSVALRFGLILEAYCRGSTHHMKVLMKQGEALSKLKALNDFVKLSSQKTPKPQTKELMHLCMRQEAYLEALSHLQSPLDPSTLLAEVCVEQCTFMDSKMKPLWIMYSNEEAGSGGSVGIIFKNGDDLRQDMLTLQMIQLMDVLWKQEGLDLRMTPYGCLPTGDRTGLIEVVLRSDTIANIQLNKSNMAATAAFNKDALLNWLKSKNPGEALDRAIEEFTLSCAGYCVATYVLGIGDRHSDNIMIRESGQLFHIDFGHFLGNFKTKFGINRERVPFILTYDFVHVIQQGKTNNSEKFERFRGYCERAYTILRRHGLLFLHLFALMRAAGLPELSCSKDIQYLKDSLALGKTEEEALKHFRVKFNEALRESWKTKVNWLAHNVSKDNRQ
Sequence of p110δ/p85α (P27986 whole entry partner): as the sequence (P27986 whole entry partner) above
Sequence of p110β/p85α (P42338 whole entry): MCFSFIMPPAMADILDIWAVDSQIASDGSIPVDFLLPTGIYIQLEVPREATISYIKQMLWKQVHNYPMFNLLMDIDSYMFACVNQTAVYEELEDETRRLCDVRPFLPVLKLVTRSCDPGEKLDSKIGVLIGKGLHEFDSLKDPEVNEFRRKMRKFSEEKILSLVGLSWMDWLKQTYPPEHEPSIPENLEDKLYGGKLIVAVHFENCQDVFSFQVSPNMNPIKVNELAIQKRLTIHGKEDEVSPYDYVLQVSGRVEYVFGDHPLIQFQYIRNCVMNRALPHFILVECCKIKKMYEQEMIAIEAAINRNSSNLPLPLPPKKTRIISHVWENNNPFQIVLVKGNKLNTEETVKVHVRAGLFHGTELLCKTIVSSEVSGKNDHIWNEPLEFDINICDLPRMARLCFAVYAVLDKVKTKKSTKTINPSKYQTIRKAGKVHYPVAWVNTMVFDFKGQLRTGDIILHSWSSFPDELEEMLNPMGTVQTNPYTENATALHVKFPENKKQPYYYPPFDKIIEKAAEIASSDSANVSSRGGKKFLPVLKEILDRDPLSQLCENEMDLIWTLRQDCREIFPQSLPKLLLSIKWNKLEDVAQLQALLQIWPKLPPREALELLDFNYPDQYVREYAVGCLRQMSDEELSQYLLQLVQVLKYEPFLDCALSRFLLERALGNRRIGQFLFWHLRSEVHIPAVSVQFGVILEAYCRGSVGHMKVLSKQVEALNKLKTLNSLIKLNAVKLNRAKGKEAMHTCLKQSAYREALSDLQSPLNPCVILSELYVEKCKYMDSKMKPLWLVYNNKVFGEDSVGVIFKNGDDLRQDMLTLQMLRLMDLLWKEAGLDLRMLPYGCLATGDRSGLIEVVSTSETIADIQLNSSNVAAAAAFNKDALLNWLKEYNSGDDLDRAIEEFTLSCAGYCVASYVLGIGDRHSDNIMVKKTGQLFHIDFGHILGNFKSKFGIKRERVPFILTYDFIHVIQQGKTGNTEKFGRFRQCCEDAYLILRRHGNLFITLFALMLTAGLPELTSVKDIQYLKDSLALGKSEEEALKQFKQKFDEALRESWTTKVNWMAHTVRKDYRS
Sequence of p110β/p85α (P27986 whole entry partner): as the sequence (P27986 whole entry partner) above

With CC(=O)N1CCC(Nc2ncnc3ccc(-c4ccc5oc(N)nc5c4)nc23)CC1 [compound 211] the pIC50 (p110β/p85α) was > 7.00, the pIC50 (p110δ/p85α) was > 7.00 and the pIC50 [1] was > 6.00. The pIC50 (p110α/p85α) was > 7.00 and the pIC50 (p110γ) was > 7.00.

With CN1CCC(Nc2ncnc3ccc(-c4ccc5oc(N)nc5c4)nc23)CC1 [compound 212] the pIC50 (p110β/p85α) was > 6.00, the pIC50 (p110δ/p85α) was > 6.00 and the pIC50 [1] was > 6.00. The pIC50 (p110α/p85α) was > 7.00 and the pIC50 (p110γ) was > 6.00.

For Nc1nc2cc(-c3ccc4sc(N)nc4c3)ccc2o1 [compound 248], the pIC50 (p110β/p85α) was > 6.00, the pIC50 (p110δ/p85α) was > 5.00 and the pIC50 [1] was > 5.00. The pIC50 (p110α/p85α) was > 5.00 and the pIC50 (p110γ) was > 6.00.

With Nc1nc2cc(-c3ccc4ncc(C(=O)N5CCN(C6CC6)CC5)n4c3)ccc2o1 [compound 263] the pIC50 (p110β/p85α) was > 5.00, the pIC50 (p110δ/p85α) was > 5.00 and the pIC50 [1] was > 5.00. For the same compound, the pIC50 (p110α/p85α) was > 7.00 and the pIC50 (p110γ) was > 5.00.

Nc1nc2cc(-c3ccc4ncc(C(=O)N5CC[C@H](O)C5)n4c3)ccc2o1 [compound 264] was tested, and the pIC50 (p110β/p85α) was > 5.00, the pIC50 (p110δ/p85α) was > 5.00 and the pIC50 [1] was > 6.00. For the same compound, the pIC50 (p110α/p85α) was > 7.00 and the pIC50 (p110γ) was > 6.00.

In the case of Nc1nc2cc(-c3ccc4ncc(C(=O)N5CC[C@@H](O)C5)n4c3)ccc2o1 [compound 265], the pIC50 (p110β/p85α) was > 5.00, the pIC50 (p110δ/p85α) was > 5.00 and the pIC50 [1] was > 6.00. For the same compound, the pIC50 (p110α/p85α) was > 7.00 and the pIC50 (p110γ) was > 7.00.

With Nc1nc2cc(-c3ccc4ncc(C(=O)N5CC(N6CCOCC6)C5)n4c3)ccc2o1 [compound 266] the pIC50 (p110β/p85α) was > 5.00, the pIC50 (p110δ/p85α) was > 6.00 and the pIC50 [1] was > 5.00. For the same compound, the pIC50 (p110α/p85α) was > 7.00 and the pIC50 (p110γ) was > 6.00.

With C[C@H]1CN(C(=O)C2CN(c3cnc4ccc(-c5ccc6oc(N)nc6c5)cc4n3)C2)CCN1 [compound 268] the pIC50 (p110β/p85α) was > 5.00, the pIC50 (p110δ/p85α) was > 5.00 and the pIC50 [1] was > 6.00. The pIC50 (p110α/p85α) was > 7.00 and the pIC50 (p110γ) was > 6.00.

In the case of CC(C)[C@H](N)C(=O)N1CCN(c2cnc3ccc(-c4ccc5oc(N)nc5c4)cc3n2)CC1 [compound 269], the pIC50 (p110β/p85α) was > 6.00, the pIC50 (p110δ/p85α) was > 6.00 and the pIC50 [1] was > 5.00. The pIC50 (p110α/p85α) was > 7.00 and the pIC50 (p110γ) was > 5.00.

For CN1CCN(CCNc2cnc3ccc(-c4ccc5oc(N)nc5c4)cc3n2)CC1 [compound 275], the pIC50 (p110β/p85α) was > 6.00, the pIC50 (p110δ/p85α) was > 6.00 and the pIC50 [1] was > 6.00. The pIC50 (p110α/p85α) was > 7.00 and the pIC50 (p110γ) was > 6.00.

With Nc1nc2cc(-c3ccc4ncc(N5CCN(C(=O)CN6CCCC6)CC5)nc4c3)ccc2o1 [compound 278] the pIC50 (p110β/p85α) was > 6.00, the pIC50 (p110δ/p85α) was > 5.00 and the pIC50 [1] was > 6.00. For the same compound, the pIC50 (p110α/p85α) was > 7.00 and the pIC50 (p110γ) was > 6.00.

For CCN(CC)CC(=O)N1CCN(c2cnc3ccc(-c4ccc5oc(N)nc5c4)cc3n2)CC1 [compound 279], the pIC50 (p110β/p85α) was > 5.00, the pIC50 (p110δ/p85α) was > 5.00 and the pIC50 [1] was > 6.00. The pIC50 (p110α/p85α) was > 7.00 and the pIC50 (p110γ) was > 5.00.

NC(=O)[C@H]1CCCN1C(=O)C1CN(c2cnc3ccc(-c4ccc5oc(N)nc5c4)cc3n2)C1 [compound 284] was tested, and the pIC50 (p110β/p85α) was > 5.00, the pIC50 (p110δ/p85α) was > 5.00 and the pIC50 [1] was > 5.00. The pIC50 (p110α/p85α) was > 7.00 and the pIC50 (p110γ) was > 6.00.

With CC(C)N1CCN(C(=O)C2CN(c3cnc4ccc(-c5ccc6oc(N)nc6c5)cc4n3)C2)CC1 [compound 285] the pIC50 (p110β/p85α) was > 5.00, the pIC50 (p110δ/p85α) was > 6.00 and the pIC50 [1] was > 6.00. The pIC50 (p110α/p85α) was > 7.00 and the pIC50 (p110γ) was > 6.00.

In the case of Nc1nc2cc(-c3ccc4ncc(N5CCN(C(=O)C6(N)CCC6)CC5)nc4c3)ccc2o1 [compound 286], the pIC50 (p110β/p85α) was > 6.00, the pIC50 (p110δ/p85α) was > 6.00 and the pIC50 [1] was > 6.00. For the same compound, the pIC50 (p110α/p85α) was > 7.00 and the pIC50 (p110γ) was > 7.00.

With Nc1nc2cc(-c3ccc4ncc(N5CC(C(=O)N6CCN(CC7CC7)CC6)C5)nc4c3)ccc2o1 [compound 287] the pIC50 (p110β/p85α) was > 5.00, the pIC50 (p110δ/p85α) was > 6.00 and the pIC50 [1] was > 5.00. The pIC50 (p110α/p85α) was > 7.00 and the pIC50 (p110γ) was > 6.00.

With Nc1nc2cc(-c3ccc4ncc(C(=O)NCCCN5CCOCC5)n4c3)ccc2o1 [compound 288] the pIC50 (p110β/p85α) was > 6.00, the pIC50 (p110δ/p85α) was > 6.00 and the pIC50 [1] was > 5.00. For the same compound, the pIC50 (p110α/p85α) was > 6.00 and the pIC50 (p110γ) was > 5.00.

Nc1nc2cc(-c3ccc4ncc(C(=O)NCCCN5CCCC5)n4c3)ccc2o1 [compound 293] was tested, and the pIC50 (p110β/p85α) was > 6.00, the pIC50 (p110δ/p85α) was > 7.00 and the pIC50 [1] was > 6.00. For the same compound, the pIC50 (p110α/p85α) was > 7.00 and the pIC50 (p110γ) was > 6.00.

In the case of Nc1nc2cc(-c3ccc4ncc(N5CCN(C(=O)[C@H](N)CO)CC5)nc4c3)ccc2o1 [compound 299], the pIC50 (p110β/p85α) was > 6.00, the pIC50 (p110δ/p85α) was > 7.00 and the pIC50 [1] was > 6.00. For the same compound, the pIC50 (p110α/p85α) was > 7.00 and the pIC50 (p110γ) was > 7.00.

For Nc1nc2cc(-c3ccc4ncc(N5CC(N6CCN(CCO)CC6)C5)nc4c3)ccc2o1 [compound 333], the pIC50 (p110β/p85α) was > 5.00, the pIC50 (p110δ/p85α) was > 6.00 and the pIC50 [1] was > 6.00. For the same compound, the pIC50 (p110α/p85α) was > 7.00 and the pIC50 (p110γ) was > 5.00.

Nc1nc2cc(-c3ccc4ncc(N5CC(N6CCS(=O)(=O)CC6)C5)nc4c3)ccc2o1 [compound 334] was tested, and the pIC50 (p110β/p85α) was > 5.00, the pIC50 (p110δ/p85α) was > 5.00 and the pIC50 [1] was > 6.00. For the same compound, the pIC50 (p110α/p85α) was > 7.00 and the pIC50 (p110γ) was > 5.00.

In the case of Cc1cn(C2CCN(c3cnc4ccc(-c5ccc6oc(N)nc6c5)cc4n3)CC2)cn1 [compound 338], the pIC50 (p110β/p85α) was > 5.00, the pIC50 (p110δ/p85α) was > 5.00 and the pIC50 [1] was > 5.00. The pIC50 (p110α/p85α) was > 7.00 and the pIC50 (p110γ) was > 5.00.
